{"source": "patent US20260248787A9", "about": "“MEDICAMENT FOR TREATING CANCER COMPRISING OPTICALLY ACTIVE AZABICYCLO RING DERIVATIVE” (Sumitomo Pharma Co., Ltd., priority 2023, published 2026)", "test_system": "MOLM-13 cells", "assay": "Tumor-bearing mice transplanted with MOLM-13 cells, with gilteritinib, T/C (Example 12)", "assay_type": "in vivo", "conditions": "MOLM-13 tumor-bearing mice; oral; 30 mg/kg; 18 days", "procedure": "The antitumor effects of the present compound and gilteritinib were evaluated. The present compound was weighed and dissolved in 0.5 w/v % Methyl Cellulose 400 solution to give the compound concentrations of 20 mg/mL and 10 mg/mL. Gilteritinib was weighed and suspended in 0.5 w/v % Methyl Cellulose 400 solution to give the compound concentrations of 3 mg/mL.\nMOLM-13 cells (DSMZ) were intradermally implanted around the ventral region of 5-week old NOD. CB17-PrkdcSCID/J mice (female, The Jackson Laboratory Japan) at 1×10^6 cells/mouse. After confirming the engraftment of MOLM-13 cells 6 days after the transplantation, the present compound was orally administered to the mice at a dose of 100 mg/kg or 200 mg/kg, and gilteritinib was orally administered to the mice at a dose of 30 mg/kg, once a day for 18 days. The tumor volume was measured over time from the start of the administration, and the reduction effect of the tumor volume due to the compound-administration was evaluated. The tumor volume was calculated by the following formula using short axis and long axis of the tumor measured with an electronic caliper (Mitutoyo).\nThe control administration group in which only the solvent was administered and the test substance administration group were compared, and T/C was calculated using the following formula to evaluate the antitumor effect.", "data": [{"molecule": "CCc1nc(C(N)=O)c(Nc2ccc(N3CCC(N4CCN(C)CC4)CC3)c(OC)c2)nc1NC1CCOCC1", "note": "[gilteritinib, reference compound]", "values": [{"measurement": "T/C", "value": 5.3, "unit": "%"}]}]}
